Experimental findings from PubChem BioAssay AID1320 (NMMLSC, 2008) are described below.

The source made the active and inactive calls. How the calls were made is not given here.

The target of the first assay is Bcl-2-related protein A1 (Homo sapiens) (UniProt Q16548). The assay can be described thus: Bfl-1/Bim complex disruptors – biochemical, multiplexed, bead-based flow cytometry, dose response (AID 1320). On percent span (inhibition): test concentration not given here. The following applies: Bim peptide-Bfl-1 binding, fluorescence. In general terms: Flow cytometry measures light scatter and fluorescence of single cells or particles in a stream.
Sequence of Bcl-2-related protein A1 (Homo sapiens) (Q16548 whole entry, looked up): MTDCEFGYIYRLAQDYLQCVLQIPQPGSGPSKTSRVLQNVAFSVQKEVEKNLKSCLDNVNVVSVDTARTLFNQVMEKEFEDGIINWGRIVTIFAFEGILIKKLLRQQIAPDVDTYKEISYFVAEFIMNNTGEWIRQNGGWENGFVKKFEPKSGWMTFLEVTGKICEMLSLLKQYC
In the case of `Cc1c(NC2=C(Cl)C(=O)N(c3ccccc3Cl)C2=O)c(=O)n(-c2ccccc2)n1C`, the EC50 is 6.04 µM.

The same assay, now with this note: Bim peptide-Bfl-1 binding, fluorescence, active compounds read high.
Consider `CC[n+]1c(/C=C/C=C/N(C(C)=O)c2ccccc2)sc2ccccc21`, for which the “percent span (inhibition)” value is “inactive”.
Same read-out and setting: the result for `CN(/N=C/c1ccncc1)C1=NS(=O)(=O)c2ccccc21` reads “inactive”.
`CS(=O)(=O)NN1C(=O)c2ccccc2NC1c1cccs1` (stereo not given): the “percent span (inhibition)” value was “inactive”.
On the same count and under the same terms, the result for `Nc1cccc(-c2cn3cccnc3n2)c1` reads “inactive”.
For the molecule `CCn1cc(C=C2C(=O)c3ccccc3C2=O)c2ccccc21`, the “percent span (inhibition)” value was “inactive”.
The same measure, in the same setting: the result for `CN(CCc1ccccn1)C(=O)CCC1CCCN(C(=O)NC2CCCCC2)C1` (stereo not given) reads “inactive”; that for `NNC(=O)COc1ccccc1F`, “inactive”.
Still for that read-out and setting: to `Cc1cc(C)c2c(N)c3cccc(C)c3nc2n1` belongs “inactive”; to `CNc1ccc(Br)cc(C(=O)/C=C/c2ccc(OC)cc2OC)c1=O`, “inactive”; to `Cc1ccnc(NS(=O)(=O)c2ccc(NC(=O)c3c(-c4ccccc4Cl)noc3C)cc2)n1`, “inactive”.
In the case of `Cc1ccc(C)c(NC(=O)C(=O)NCc2ccccn2)c1`, the “percent span (inhibition)” value was “inactive”.
On the same count and under the same terms, to `COc1ccc(OC)c(Nc2ccc(C(=O)O)cc2[N+](=O)[O-])c1` belongs “inactive”.
Same read-out and setting: to `CCNC(=S)Nc1cc(OCC)c(NC(=O)c2cccs2)cc1OCC` belongs “inactive”; to `CN(CCCOc1ccccc1Br)Cc1ccccc1`, “inactive”.
In the case of `COc1ccccc1Nc1nc(-c2c(C)nc3ncccn23)cs1`, the “percent span (inhibition)” value was “inactive”.
The same measure, in the same setting: the result for `CCOc1cc(/C=C2/N=C(C)C(C(=O)OC)=C2O)ccc1O` reads “inactive”; that for `Cc1ccc(N=C2NC(=O)/C(=C/C=C/c3ccco3)S2)cc1`, “inactive”; that for `Cc1ccc(-c2cc(-c3ccccc3)c(C#N)c(N)n2)o1`, “inactive”.
Same read-out and setting: the result for `c1csc(C2=Nn3c(nnc3-c3ccncc3)SC2)c1` reads “inactive”.
On the same count and under the same terms, to `O=C(Nc1nccs1)c1ccc(COc2ccc(F)cc2)o1` belongs “inactive”; to `Cc1sc(NC(=O)Cn2cnnn2)nc1-c1ccc(Cl)cc1`, “inactive”.
`Cc1ccnc(NS(=O)(=O)c2ccc(NS(=O)(=O)c3cccs3)cc2)n1`: the “percent span (inhibition)” value is “inactive”.
The same measure, in the same setting: the result for `CCOc1ccc(C2=Nn3c(nnc3-c3ccco3)SC2)cc1` reads “inactive”; that for `CCOc1ccc(C2=Nn3c(nnc3-c3ccccn3)SC2)cc1`, “inactive”; that for `Cc1cc(/C=C(/C#N)C(=O)Nc2ccc(Cl)cc2)c(C)n1-c1cccnc1`, “inactive”.
Still for that read-out and setting: to `CCN1CCN(c2cc(C)c3cc(NC(=S)N4CCN(c5ccc(F)cc5)CC4)ccc3n2)CC1` belongs “inactive”; to `COc1ccc2cc(CN(CCc3ccccc3)Cc3nnnn3CC3CCCO3)c(=O)[nH]c2c1` (stereo not given), “inactive”; to `COc1ccc(N2CC(C(=O)Nc3nnc(SCC(=O)c4ccccc4)s3)CC2=O)cc1` (stereo not given), “inactive”.
With `CC(C)(C)OC(=O)N1CCN(C(=O)[C@H](Cc2ccc(O)cc2)n2cc(CCO)nn2)CC1`, the “percent span (inhibition)” value was “inactive”.
With `COc1cc2nc(=S)n(CCCN3CCOCC3)c(N)c2cc1OC`, the “percent span (inhibition)” value was “inactive”.
On the same count and under the same terms, to `COC(=O)Cc1cc(=O)[nH]c(Nc2nc3ccccc3o2)n1` belongs “inactive”; to `Cc1ccc2nc3c(cc(C(N)=S)c(=N)n3CCCOC(C)C)c(=O)n2c1`, “inactive”; to `c1ccc(-c2nc(N3CCCCC3)nc3ccccc23)cc1`, “inactive”.
Consider `COc1ccc(/C=C/C(=O)Nc2sc(Cc3ccccc3)c(C)c2C(N)=O)cc1`, for which the “percent span (inhibition)” value was “inactive”.

The EC50 is the concentration giving half of the maximal effect.
